Source: US8815535B2, “Disk diffusion assay for oritavancin” (The Medicines Company, priority 2011, dated 2014)
Several values for one entry are separate records, joined by “and”; a condition that tells them apart may be missing. Identical values can stand only once. Like-named read-outs stand apart in the source and are kept apart here.

Tested on: hVISA NRS2
Assay: Disk diffusion assay (zone of inhibition)
Type: cell-based, Staphylococcus aureus
Details: for zone of inhibition at 90 µg/disc: 90 μg oritavancin; for zone of inhibition at 180 µg/disc: 180 μg oritavancin; for zone of inhibition at 12.5 µg/disc: 12.5 μg in 4% P80/Span 80 (1:1); for zone of inhibition at 200 µg/disc: 200 μg in 4% P80/Span 80 (1:1)
Excerpt: The study was designed to identify conditions that improve oritavancin diffusion in agar and consequently yield a zone diameter ≧15 mm for the CLSI quality control strain MSSA ATCC 25923. Excipients that increased the disk diffusion of oritavancin in agar relative to disks containing only oritavancin were identified and selected for further study. […] A prediffusion step at room temperature was introduced to maximize oritavancin diffusion prior to initiation of bacterial growth. In this step, the antimicrobial disks were placed on agar plates seeded with a bacterial isolate and incubated at room temperature for 3 hours. Plates were then incubated overnight at 37° C. Zone diameters around the disks in which bacterial growth was inhibited were measured with a ruler and reported in millimeters.
Ethanol-sterilized Whatman paper disks (6 mm diameter) were allowed to dry then impregnated with 20 microliters of oritavancin solution containing total amounts ranging from 90 to 360 micrograms. Disks were allowed to dry at room temperature for various times prior to use.
Bacterial suspensions were prepared and adjusted to an optical density of 0.1 at 600 nm. Standard cation-adjusted Mueller Hinton agar plates (90 mm diameter) were seeded with bacterial suspensions by initially swabbing the center of plate then moving outward towards the edge. The plate was swabbed a second time, perpendicular to the orientation of the first swab. To assess the impact of prediffusion on diameter of inhibition zones, two disks were immediately placed on one half of the plate and the plate was incubated for 3 hours at room temperature. After 3 hours, two additional disks were placed on the other half of the plate then the plate was incubated overnight at 37° C. Zone diameters were measured with a ruler and reported in millimeters.
Oritavancin powder was dissolved in freshly-prepared solutions of the indicated excipients at concentrations of 0.625, 1.25, 2.5, 5, and 10 mg/ml (adjusted for potency based on lot 875561L00 purity of 83.1%) by vortexing for a minimum of 5 minutes. Oritavancin solutions in the various excipients, while not visually clear, were free from any apparent particulates as assessed visually. Sterile Oxoid blank disks were impregnated with 20 μl of these oritavancin solutions, resulting in oritavancin disk loads ranging from 12.5 to 200 μg. Unless indicated otherwise, disks were allowed to dry overnight at room temperature prior to use.
Bacterial suspensions from isolated colonies on overnight cation-adjusted Mueller Hinton agar plates were prepared in sterile saline and adjusted to an optical density of 0.1 at 600 nm Standard cation-adjusted Mueller Hinton agar plates (90 mm diameter) were seeded with bacterial suspensions by initially swabbing the center of plate then moving outward. Swabbing was continued at a right angle and then at an oblique angle to the first and second swabs. Disks were placed upon the seeded plates with sterile forceps. Plates were then incubated overnight at 37° C. and inhibition zone diameters were measured with a ruler and reported in millimeters.

[1] = Staphylococcus aureus, NRS2, 192 h, NRS2, 2.5% P80, disks stored 8 days, prediffusion, read-out: Average zone diameter
[2] = Staphylococcus aureus, NRS2, 336 h, NRS2, 5% P80, disks stored 14 days, prediffusion, read-out: Average zone diameter
[3] = Staphylococcus aureus, NRS2, 336 h, NRS2, 10% P80, disks stored 14 days, prediffusion, read-out: Average zone diameter
[4] = Staphylococcus aureus, NRS2, NRS2, calcium alginate swab, dried overnight, read-out: Inhibition zone diameter
[5] = Staphylococcus aureus, NRS2, NRS2, cotton swab, dried overnight, estimate of diameter

CN[C@H](CC(C)C)C(=O)N[C@H]1C(=O)N[C@@H](CC(N)=O)C(=O)N[C@H]2C(=O)N[C@H]3C(=O)N[C@H](C(=O)N[C@H](C(=O)O)c4cc(O)cc(O)c4-c4cc3ccc4O)[C@H](O[C@H]3C[C@](C)(N)[C@@H](O)[C@H](C)O3)c3ccc(c(Cl)c3)Oc3cc2cc(c3O[C@@H]2O[C@H](CO)[C@@H](O)[C@H](O)[C@H]2O[C@H]2C[C@](C)(NCc3ccc(-c4ccc(Cl)cc4)cc3)[C@@H](O)[C@H](C)O2)Oc2ccc(cc2Cl)[C@H]1O [oritavancin, N-(4-(4-chlorophenyl)benzyl)A82846B] was tested, and the Inhibition zone diameter (NRS2, 25 μg (20 μl of 1.25 mg/ml) in 4% P80/Span 80 (1:1), calcium alginate swab, dried overnight) was 10 mm and 12, 12 mm, the zone of inhibition at 360 µg/disc (Staphylococcus aureus, NRS2, 3 h, NRS2, 360 μg oritavancin, excipient 10% HPCD, disks made same day, 3 h prediffusion, average of 2 disks, read-out: Average zone diameter) was 17.5 mm and the zone of inhibition at 90 µg/disc [1] was 14 mm. For the same compound, the zone of inhibition at 180 µg/disc [1] was 14.8 mm, the zone of inhibition at 360 µg/disc (Staphylococcus aureus, NRS2, 192 h, NRS2, 360 μg in 5% P80, Experiment 2, disks stored 8 days, no prediffusion, read-out: Zone diameter (mm ± SD)) was 14.3 ± 0.4 mm and the zone of inhibition at 360 µg/disc (Staphylococcus aureus, NRS2, 192 h, NRS2, 360 μg oritavancin, 2.5% P80, disks stored 8 days, prediffusion, read-out: Average zone diameter) was 15 mm. It also gave a zone of inhibition at 90 µg/disc [2] of 15 mm, a zone of inhibition at 90 µg/disc [3] of 15.8 mm and a zone of inhibition at 180 µg/disc [2] of 16 mm. The zone of inhibition at 180 µg/disc [3] was 16 mm, the zone of inhibition at 360 µg/disc (Staphylococcus aureus, NRS2, 336 h, NRS2, 360 μg in 5% P80, Experiment 1, disks stored 14 days, no prediffusion, read-out: Zone diameter (mm ± SD)) was 15.5 mm and the zone of inhibition at 360 µg/disc (Staphylococcus aureus, NRS2, 336 h, NRS2, 360 μg oritavancin, 5% P80, disks stored 14 days, prediffusion, read-out: Average zone diameter) was 18 mm. The zone of inhibition at 360 µg/disc (Staphylococcus aureus, NRS2, 336 h, NRS2, 360 μg oritavancin, 10% P80, disks stored 14 days, prediffusion, read-out: Average zone diameter) was 16.5 mm, the zone of inhibition at 12.5 µg/disc [4] was 12.5 mm and the zone of inhibition at 12.5 µg/disc [5] was 13 mm. The zone of inhibition at 1250 µg/mL (Staphylococcus aureus, NRS2, NRS2, 25 μg (20 μl of 1.25 mg/ml) in 4% P80/Span 80 (1:1), calcium alginate swab, dried overnight, read-out: Inhibition zone diameter) was 16 mm, the zone of inhibition at 25 µg/disc (Staphylococcus aureus, NRS2, NRS2, 25 μg in 4% P80/Span 80 (1:1), cotton swab, dried overnight, estimate of diameter) was 17 mm and the zone of inhibition at 50 µg/disc (Staphylococcus aureus, NRS2, NRS2, 50 μg in 4% P80/Span 80 (1:1), calcium alginate swab, dried overnight, read-out: Inhibition zone diameter) was 15 mm. It also gave a zone of inhibition at 50 µg/disc (Staphylococcus aureus, NRS2, NRS2, 50 μg in 4% P80/Span 80 (1:1), cotton swab, dried overnight, estimate of diameter) of 17 mm, a zone of inhibition at 50 µg/disc (Staphylococcus aureus, NRS2, NRS2, 50 μg, 4% P80/Span 80 ratio 50:50, dried overnight, estimate of diameter) of 16 mm and a zone of inhibition at 50 µg/disc (Staphylococcus aureus, NRS2, NRS2, 50 μg, 4% P80/Span 80 ratio 60:40, dried overnight, estimate of diameter) of 15 mm. It also gave a zone of inhibition at 50 µg/disc (Staphylococcus aureus, NRS2, NRS2, 50 μg, 4% P80/Span 80 ratio 70:30, dried overnight, estimate of diameter) of 14 mm, a zone of inhibition at 50 µg/disc (Staphylococcus aureus, NRS2, NRS2, 50 μg, 4% P80/Span 80 ratio 80:20, dried overnight, estimate of diameter) of 14 mm and a zone of inhibition at 50 µg/disc (Staphylococcus aureus, NRS2, NRS2, 50 μg, 4% P80/Span 80 ratio 90:10, dried overnight, estimate of diameter) of 12 mm. For the same compound, the zone of inhibition at 100 µg/disc (Staphylococcus aureus, NRS2, NRS2, 100 μg in 4% P80/Span 80 (1:1), calcium alginate swab, dried overnight, read-out: Inhibition zone diameter) was 11 mm, the zone of inhibition at 200 µg/disc [4] was 10 mm and the zone of inhibition at 200 µg/disc [5] was 13 mm.
